Data reported in ChEMBL document CHEMBL5608244, “Preclinical Evaluation of Dihydropyrazole-Cored Positron Emission Tomography (PET) Ligands for Imaging of Receptor-Interacting Serine/Threonine Protein Kinase 1 (RIPK1) in the Brain” (J Med Chem, 2024).

Experiments:
[1] = Biodistribution in ICR mouse lung at 0.74 MBq, iv measured after 2 mins by automatic gamma counter analysis; assay type: ADME, organism-based; details: in vivo
[2] = Biodistribution in ICR mouse stomach at 0.74 MBq, iv measured after 2 mins by automatic gamma counter analysis; assay type: ADME, organism-based; details: in vivo
[3] = Drug metabolism in mouse liver assessed as parent compound remaining at 13.5 MBq, iv measured after 30 mins by HPLC analysis; assay type: ADME, organism-based; details: read-out: Activity
[4] = Drug metabolism in mouse liver assessed as polar radiometabolites accumulation at 13.5 MBq, iv measured after 30 mins by HPLC analysis; assay type: ADME, organism-based; details: in vivo, 0.5 h
[5] = Biodistribution in ICR mouse pancreas at 0.74 MBq, iv measured after 2 mins by automatic gamma counter analysis; assay type: ADME, organism-based; details: in vivo
[6] = Biodistribution in ICR mouse small intestine at 0.74 MBq, iv measured after 2 mins by automatic gamma counter analysis; assay type: ADME, organism-based; details: in vivo
[7] = Drug uptake in thalamus of ICR mouse brain assessed as reduction in radioactivity incubated for 30 mins in presence of GSK'547 by Phosphor Imager analysis; assay type: ADME, tissue-based; details: 0.5 h
[8] = Biodistribution in ICR mouse blood at 0.74 MBq, iv measured after 60 mins by automatic gamma counter analysis; assay type: ADME, organism-based; details: in vivo, 1 h
[9] = Biodistribution in ICR mouse heart at 0.74 MBq, iv measured after 10 mins by automatic gamma counter analysis; assay type: ADME, organism-based; details: in vivo
[10] = Biodistribution in ICR mouse small intestine at 0.74 MBq, iv measured after 60 mins by automatic gamma counter analysis; assay type: ADME, organism-based; details: in vivo, 1 h
[11] = Biodistribution in ICR mouse assessed as drug accumulation in bone without marrow at 0.74 MBq, iv pretreated with 1-(5-(3-fluorophenyl)-4,5-dihydro-1H-pyrazol-1-yl)-2,2-dimethylpropan-1-one followed by compound administration measured after 10 mins by automatic gamma counter analysis; assay type: ADME, organism-based; details: in vivo
[12] = Biodistribution in ICR mouse kidneys at 0.74 MBq, iv measured after 2 mins by automatic gamma counter analysis; assay type: ADME, organism-based, Kidney; details: in vivo
[13] = Biodistribution in ICR mouse blood at 0.74 MBq, iv measured after 30 mins by automatic gamma counter analysis; assay type: ADME, organism-based; details: in vivo, 0.5 h
[14] = Drug uptake in brain of TNF-alpha-induced SIRS Sprague-Dawley rat model at 9.9 to 14.8 MBq, iv measured for 5 mins by PET analysis; assay type: ADME, organism-based; details: in vivo, dose 9.9-14.8 MBq
[15] = Biodistribution in ICR mouse bone at 0.74 MBq, iv measured after 10 mins by automatic gamma counter analysis; assay type: ADME, organism-based, Bone element; details: in vivo
[16] = Biodistribution in ICR mouse liver at 0.74 MBq, iv measured after 30 mins by automatic gamma counter analysis; assay type: ADME, organism-based; details: in vivo, 0.5 h
[17] = Biodistribution in ICR mouse brain at 0.74 MBq, iv measured after 30 mins by automatic gamma counter analysis; assay type: ADME, organism-based; details: in vivo, 0.5 h
[18] = Biodistribution in ICR mouse kidneys at 0.74 MBq, iv measured after 10 mins by automatic gamma counter analysis; assay type: ADME, organism-based, Kidney; details: in vivo
[19] = Biodistribution in ICR mouse stomach at 0.74 MBq, iv measured after 30 mins by automatic gamma counter analysis; assay type: ADME, organism-based; details: in vivo, 0.5 h
[20] = Lipophilicity, logD of compound at pH 7.4 by shake flask method; assay type: physicochemical; details: buffer
[21] = Drug uptake in cerebellum of ICR mouse brain at 0.5 to 10 uM incubated for 30 mins by Phosphor Imager analysis; assay type: ADME, tissue-based; details: 0.5 h, dose 0.5-10 µM
[22] = Biodistribution in ICR mouse muscle at 0.74 MBq, iv measured after 30 mins by automatic gamma counter analysis; assay type: ADME, organism-based, Muscle tissue; details: in vivo, 0.5 h
[23] = Biodistribution in ICR mouse lung at 0.74 MBq, iv measured after 30 mins by automatic gamma counter analysis; assay type: ADME, organism-based; details: in vivo, 0.5 h
[24] = Biodistribution in ICR mouse brain at 0.74 MBq, iv measured after 2 mins by automatic gamma counter analysis; assay type: ADME, organism-based; details: in vivo
[25] = Biodistribution in ICR mouse lung at 0.74 MBq, iv measured after 60 mins by automatic gamma counter analysis; assay type: ADME, organism-based; details: in vivo, 1 h
[26] = Biodistribution in ICR mouse pancreas at 0.74 MBq, iv measured after 60 mins by automatic gamma counter analysis; assay type: ADME, organism-based; details: in vivo, 1 h
[27] = Drug uptake in thalamus of ICR mouse brain assessed as reduction in radioactivity incubated for 30 mins in presence of 1-(5-(3-fluorophenyl)-4,5-dihydro-1H-pyrazol-1-yl)-2,2-dimethylpropan-1-one by Phosphor Imager analysis; assay type: ADME, tissue-based; details: 0.5 h, dose 0.5-10 µM
[28] = Biodistribution in ICR mouse muscle at 0.74 MBq, iv measured after 60 mins by automatic gamma counter analysis; assay type: ADME, organism-based, Muscle tissue; details: in vivo, 1 h
[29] = Biodistribution in ICR mouse lung at 0.74 MBq, iv measured after 10 mins by automatic gamma counter analysis; assay type: ADME, organism-based; details: in vivo
[30] = Drug uptake in thalamus of ICR mouse brain assessed as reduction in radioactivity incubated for 30 mins in presence of 0.5 uM of 1-(5-(3-fluorophenyl)-4,5-dihydro-1H-pyrazol-1-yl)-2,2-dimethylpropan-1-one by Phosphor Imager analysis; assay type: ADME, tissue-based; design: scale not given: the % may be the effect or the level left; details: 0.5 h
[31] = Drug uptake in medulla of ICR mouse brain at 0.5 to 10 uM incubated for 30 mins by Phosphor Imager analysis; assay type: ADME, tissue-based, Medulla of organ; details: 0.5 h, dose 0.5-10 µM
[32] = Biodistribution in ICR mouse heart at 0.74 MBq, iv measured after 60 mins by automatic gamma counter analysis; assay type: ADME, organism-based; details: in vivo, 1 h
[33] = Drug uptake in Sprague-Dawley rat bone at 10 to 17.6 MBq, iv treated upto 30 mins by PET analysis; assay type: ADME, organism-based, Bone element; details: in vivo, 0.5 h, dose 10-17.6 MBq
[34] = Biodistribution in ICR mouse assessed as decrease in drug accumulation in bone with marrow at 0.74 MBq, iv pretreated with 1-(5-(3-fluorophenyl)-4,5-dihydro-1H-pyrazol-1-yl)-2,2-dimethylpropan-1-one followed by compound administration measured after 10 mins by automatic gamma counter analysis; assay type: ADME, organism-based; design: scale not given: the % may be the effect or the level left; details: in vivo
[35] = Biodistribution in ICR mouse heart at 0.74 MBq, iv measured after 2 mins by automatic gamma counter analysis; assay type: ADME, organism-based; details: in vivo
[36] = Drug uptake in thalamus of ICR mouse brain assessed as reduction in radioactivity incubated for 30 mins in presence of 0.5 uM of GSK'547 by Phosphor Imager analysis; assay type: ADME, tissue-based; design: scale not given: the % may be the effect or the level left; details: 0.5 h
[37] = Biodistribution in ICR mouse brain at 0.74 MBq, iv measured after 60 mins by automatic gamma counter analysis; assay type: ADME, organism-based; details: in vivo, 1 h
[38] = Biodistribution in ICR mouse kidneys at 0.74 MBq, iv measured after 30 mins by automatic gamma counter analysis; assay type: ADME, organism-based, Kidney; details: in vivo, 0.5 h
[39] = Biodistribution in ICR mouse stomach at 0.74 MBq, iv measured after 10 mins by automatic gamma counter analysis; assay type: ADME, organism-based; details: in vivo
[40] = Retention time of the compound by HPLC method; assay type: physicochemical
[41] = Biodistribution in ICR mouse muscle at 0.74 MBq, iv measured after 2 mins by automatic gamma counter analysis; assay type: ADME, organism-based, Muscle tissue; details: in vivo
[42] = Drug uptake in brain of Sprague-Dawley rat at 9.9 to 14.8 MBq, iv measured for 5 mins by PET analysis; assay type: ADME, organism-based; details: in vivo, dose 9.9-14.8 MBq
[43] = Biodistribution in ICR mouse assessed as drug accumulation in bone without marrow at 0.74 MBq, iv pretreated with GSK'547 followed by compound administration measured after 10 mins by automatic gamma counter analysis; assay type: ADME, organism-based; details: in vivo

CC(C)(C)C(=O)N1N=CCC1c1cccc([18F])c1 (stereo not drawn)
Drug uptake [1]: 16.41 % ID/g
Drug uptake [2]: 0.9 % ID/g
remaining at 0.5 h [3]: 1.5%
Drug metabolism [4]: Metabolite_Detected
Drug uptake [5]: 6.65 % ID/g
Drug uptake [6]: 5.07 % ID/g
Activity [7]: Dose-Dependent Effect
Drug uptake [8]: 0.57 % ID/g
Drug uptake [9]: 3.27 % ID/g
Drug uptake [10]: 30.6 % ID/g
Drug uptake [11]: 21%
Drug uptake [12]: 10.39 % ID/g
Drug uptake [13]: 2.96 % ID/g
Drug uptake [14]: Active
Drug uptake [15]: 4.17 % ID/g
Drug uptake [16]: 7.56 % ID/g
Drug uptake [17]: 0.48 % ID/g
Drug uptake [18]: 18.03 % ID/g
Drug uptake [19]: 0.44 % ID/g
logD [20]: 2.25
Drug uptake [21]: Active
Drug uptake [22]: 1.13 % ID/g
Drug uptake [23]: 2.58 % ID/g
Drug uptake [24]: 4.89 % ID/g
Drug uptake [25]: 1.03 % ID/g
Drug uptake [26]: 1.46 % ID/g
Activity [27]: Dose-Dependent Effect
Drug uptake [28]: 0.47 % ID/g
Drug uptake [29]: 7.23 % ID/g
Activity [30]: ~ 5%
Drug uptake [31]: Active
Drug uptake [32]: 0.5 % ID/g
Drug uptake [33]: Not Active
Activity [34]: 14.8%
Drug uptake [35]: 6.8 % ID/g
Activity [36]: ~ 5%
Drug uptake [37]: 0.21 % ID/g
Drug uptake [38]: 9.68 % ID/g
Drug uptake [39]: 0.64 % ID/g
Retention_time [40]: 21.84 min
Drug uptake [41]: 3.7 % ID/g
Drug uptake [42]: Active
Drug uptake [43]: 12.1%
